Tests used:
Assay type in all cases: cell-based, Plasmodium falciparum
P. falciparum D6 = assay: Malaria SYBR Green Fluorescence Assay, D6 strain; settings: for D6: SYBR Green Assay
P. falciparum W2 = assay: Malaria SYBR Green Fluorescence Assay, W2 strain; settings: for W2: SYBR Green Assay
P. falciparum C235 = assay: Malaria SYBR Green Fluorescence Assay, C235 strain; settings: for C235: SYBR Green Assay

Compound | D6 (SYBR Green Assay IC50) (P. falciparum D6) [µg/mL] | W2 (SYBR Green Assay IC50) (P. falciparum W2) [µg/mL] | C235 (SYBR Green Assay IC50) (P. falciparum C235) [µg/mL] | D6 (P. falciparum D6) [ng/mL] | W2 (P. falciparum W2) [ng/mL] | C235 (P. falciparum C235) [ng/mL]
CC(C)(N)CNc1nc(-c2ccc(F)cc2)nc(C(Cl)(Cl)Cl)n1 [Cmpd 389] | 0.03 | 0.013 | 0.045 |  |  | 
CC(C)CN1CCC(CC1)NC1═NC(═NC(═N1)C1═CC(═CC═C1)C(F)(F)F)C(Cl)(Cl)Cl [Compound 700] |  |  |  | 513 | 368 | 567
COc1cc(OC)cc(-c2nc(N3CCCNCC3)nc(C(Cl)(Cl)Cl)n2)c1 [Cmpd 525] | 0.043 | 0.033 | 0.041 |  |  | 
COC1═CC(═CC═C1)C1═NC(═NC(═N1)C(Cl)(Cl)Cl)N1CCC(N)CC1 [Compound 629] | 0.021 | 0.015 | 0.019 |  |  | 
CC(=O)Nc1cccc(Nc2nc(NCCC3CCCN3C)nc(C(Cl)(Cl)Cl)n2)c1 (stereo not drawn) [Cmpd 92] |  |  |  | 122 | 106 | 164
Clc1ccc(-c2nc(NCc3cccnc3)nc(C(Cl)(Cl)Cl)n2)cc1 [Cmpd 142] |  |  |  | 306 | 112 | 469
COc1ccc(-c2nc(N3CCN(CCO)CC3)nc(C(Cl)(Cl)Cl)n2)c2ccccc12 [Cmpd 422] | 0.291 | 0.073 | 0.31 |  |  | 
CN1CCC(CNc2nc(-c3ccccc3[N+](=O)[O-])nc(C(Cl)(Cl)Cl)n2)CC1 [Cmpd 516] | 0.292 | 0.083 | 0.181 |  |  | 
NC1(CNc2nc(-c3ccc(C(Cl)(Cl)Cl)cc3)nc(C(Cl)(Cl)Cl)n2)CCOCC1 [Cmpd 311] |  |  |  | 81 | 47 | 169
OCCN1CCCN(c2nc(-c3ccc(Cl)c(Cl)c3)nc(C(Cl)(Cl)Cl)n2)CC1 [Cmpd 454] | 0.252 | 0.064 | 0.118 |  |  | 
ClC(Cl)(Cl)c1nc(Nc2ccc(cc2)n3cccn3)nc(n1)C(Cl)(Cl)Cl [Compound 732] |  |  |  | 386 | 160 | 584
COc1cc(OC)cc(-c2nc(NCCN3CCCC3)nc(C(Cl)(Cl)Cl)n2)c1 [Cmpd 476] | 0.057 | 0.023 | 0.035 |  |  | 
Clc1ccc(-c2nc(NCCc3ccncc3)nc(C(Cl)(Cl)Cl)n2)cc1 [Cmpd 139] |  |  |  | 202 | 81 | 320
COC1═C2C═CC═CC2═C(C═C1)C1═NC(NC2CCN(CC(C)C)CC2)═NC(═N1)C(Cl)(Cl)Cl [Compound 703] |  |  |  | 324 | 237 | 338
CC(C)N1CCC(CNc2nc(-c3ccc(Cl)cc3)nc(C(Cl)(Cl)Cl)n2)CC1 [Cmpd 487] | 0.064 | 0.019 | 0.033 |  |  | 
COc1ccc(-c2nc(N3CCC(N)CC3)nc(C(Cl)(Cl)Cl)n2)c2ccccc12 [Compound 620, COC1═CC═C(C2═NC(═NC(═N2)C(Cl)(Cl)Cl)N2CCC(N)CC2)C2═C1C═CC═C2] | 0.431 | 0.175 | 0.409 |  |  | 
COc1ccc(-c2nc(NCC3(N)CCOCC3)nc(C(Cl)(Cl)Cl)n2)cc1OC [Cmpd 319] |  |  |  | 16 | 10 | 34
OCCN1CCCN(c2nc(-c3ccc4ccccc4c3)nc(C(Cl)(Cl)Cl)n2)CC1 [Cmpd 459] | 0.163 | 0.108 | 0.153 |  |  | 
CN1CCN(c2nc(-c3ccc(S(C)(=O)=O)cc3)nc(C(Cl)(Cl)Cl)n2)CC1 [Cmpd 54] |  |  |  | 432 | 356 | 632
COc1ccc(-c2nc(NCC3CCN(C)CC3)nc(C(Cl)(Cl)Cl)n2)c2ccccc12 [Cmpd 517] | 0.023 | 0.007 | 0.012 |  |  | 
CCN1CCC(CNc2nc(-c3ccccc3[N+](=O)[O-])nc(C(Cl)(Cl)Cl)n2)CC1 [Cmpd 551] | 0.07027 | 0.0356 | 0.05653 |  |  | 
COc1cccc(-c2nc(NCC3CCN(C(C)C)CC3)nc(C(Cl)(Cl)Cl)n2)c1 [Cmpd 485] | 0.094 | 0.024 | 0.045 |  |  | 
COc1ncccc1Nc1nc(NCCN2CCCC2)nc(C(Cl)(Cl)Cl)n1 [Cmpd 350] |  |  |  | 560 | 467 | 900
CN1CCC(CNc2nc(-c3ccc(S(C)(=O)=O)cc3)nc(C(Cl)(Cl)Cl)n2)CC1 [Cmpd 510] | 0.416 | 0.088 | 0.273 |  |  | 

Compound | D6 (SYBR Green Assay IC50) (P. falciparum D6) [µg/mL] | W2 (SYBR Green Assay IC50) (P. falciparum W2) [µg/mL] | C235 (SYBR Green Assay IC50) (P. falciparum C235) [µg/mL] | D6 (P. falciparum D6) [ng/mL] | W2 (P. falciparum W2) [ng/mL] | C235 (P. falciparum C235) [ng/mL]
CCN(CC)CCNc1nc(-c2ccccc2OC)nc(C(Cl)(Cl)Cl)n1 [Cmpd 107] |  |  |  | 212 | 95 | 158
CCN1CCCC(Nc2nc(-c3ccccc3OC)nc(C(Cl)(Cl)Cl)n2)C1 (stereo not drawn) [Cmpd 215] |  |  |  | 426 | 132 | 248
CC(=O)Nc1cccc(Nc2nc(-c3ccc(S(C)(=O)=O)cc3)nc(C(Cl)(Cl)Cl)n2)c1 [Compound 691, CC(═O)Nc1cccc(Nc2nc(nc(n2)C(Cl)(Cl)Cl)c3ccc(cc3)S(═O)(═O)C)c1] |  |  |  | 341 | 256 | 705
CSc1ccc(cc1)c2nc(nc(n2)C(Cl)(Cl)Cl)N3CC4CC3CN4C(═O)OC(C)(C)C [Compound 710] |  |  |  | 145 | 281 | 571
CC1(C)CC(Nc2nc(-c3ccc(C(Cl)(Cl)Cl)cc3)nc(C(Cl)(Cl)Cl)n2)CC(C)(C)N1 [Cmpd 325] |  |  |  | 123 | 82 | 269
NC1CCN(c2nc(-c3cccc(C(F)(F)F)c3)nc(C(Cl)(Cl)Cl)n2)CC1 [Compound 625, NC1CCN(CC1)C1═NC(═NC(═N1)C1═CC═CC(═C1)C(F)(F)F)C(Cl)(Cl)Cl] | 0.047 | 0.012 | 0.02 |  |  | 
COC1═C(OC)C═C(C═C1)C1═NC(NCC2(N)CCCCC2)═NC(═N1)C(Cl)(Cl)Cl [Compound 669] |  |  |  | 12 | 10 | 23
Cc1ccc(-c2ccccc2-c2nc(NCCCN(C)C)nc(C(Cl)(Cl)Cl)n2)cc1 [Cmpd 446] | 0.482 | 0.223 | 0.535 |  |  | 
CCN(CC)CCNc1nc(-c2ccc(OC)cc2)nc(C(Cl)(Cl)Cl)n1 [Cmpd 268] |  |  |  | 309 | 259 | 282
CC1(C)CC(Nc2nc(-c3ccc(F)cc3)nc(C(Cl)(Cl)Cl)n2)CC(C)(C)N1 [Cmpd 391] | 0.043 | 0.019 | 0.046 |  |  | 
CN1CCCN(CC1)C1═NC(NC2═CC═C(OC(F)(F)F)C═C2)═NC(═N1)C(Cl)(Cl)Cl [Compound 658] |  |  |  | 701 | 625 | 875
Cc1ccc(-c2nc(N3CCCN(C)CC3)nc(C(Cl)(Cl)Cl)n2)cc1 [Cmpd 112] |  |  |  | 168 | 107 | 209
Cc1ccc(-c2nc(NCC3CCN(C)CC3)nc(C(Cl)(Cl)Cl)n2)cc1 [Cmpd 503] | 0.044 | 0.014 | 0.026 |  |  | 
CN1CCCC1CCNc1nc(-c2ccccc2[N+](=O)[O-])nc(C(Cl)(Cl)Cl)n1 (stereo not drawn) [Cmpd 524] | 0.108 | 0.028 | 0.07 |  |  | 
Clc1cccc(-c2nc(NCCCN3CCCC3)nc(C(Cl)(Cl)Cl)n2)c1 [Cmpd 433] | 0.076 | 0.044 | 0.145 |  |  | 
COc1cc(OC)cc(-c2nc(NCCCN3CCCC3)nc(C(Cl)(Cl)Cl)n2)c1 [Cmpd 477] | 0.077 | 0.023 | 0.041 |  |  | 
Cc1ccc(-c2nc(NCCc3cccnc3)nc(C(Cl)(Cl)Cl)n2)cc1 [Cmpd 172] |  |  |  | 209 | 106 | 346
COc1ccc(-c2nc(NCC3CCN(C(C)C)CC3)nc(C(Cl)(Cl)Cl)n2)c2ccccc12 [Cmpd 498] | 0.247 | 0.066 | 0.125 |  |  | 
CCN1CCCC(Nc2nc(Cc3ccccc3OC)nc(C(Cl)(Cl)Cl)n2)C1 (stereo not drawn) [Cmpd 94] |  |  |  | 396 | 173 | 456
NC1CCN(CC1)C1═NC(═NC(═N1)C(Cl)(Cl)Cl)C1═CC(Cl)═CC(Cl)═C1 [Compound 631] | 0.291 | 0.153 | 0.219 |  |  | 
CN1CCCN(c2nc(-c3ccccc3[N+](=O)[O-])nc(C(Cl)(Cl)Cl)n2)CC1 [Cmpd 548] | 0.069 | 0.053 | 0.07 |  |  | 
CCN1CCC(CNc2nc(-c3cccc(OC)c3)nc(C(Cl)(Cl)Cl)n2)CC1 [Cmpd 258] |  |  |  | 50 | 29 | 26
CCC(N)(CC)CNc1nc(-c2ccc(F)cc2)nc(C(Cl)(Cl)Cl)n1 [Cmpd 359] | 0.045 | 0.051 | 0.095 |  |  | 
